Values quoted from earlier work, collected in patent publication US20090117584A1, “Non-Human mammalian Arthritis Model Featuring Human Antibodies Against Citrul-Linated Proteins” (GENMAB A/S, priority 2005, published 2009).

How the values were obtained:
human IgG = conditions: SCID mice engrafted with human RA tissue, treated with T-614
anti-CCP antibodies = conditions: RA patients; anti-TNFα therapy in combination with low-dose methotrexate

| Compound | levels of human IgG in SCID-HuRag mice (human IgG) | anti-CCP titers (anti-CCP antibodies) |
| --- | --- | --- |
| CS(=O)(=O)Nc1cc2occ(NC=O)c(=O)c2cc1Oc1ccccc1 [T-614] | decreases | – |
| infliximab: anti-TNFalpha therapy, named in the cited title | – | decrease |
